Assay results from patent US12281301B2, “Sequencing-based proteomics” (THE BROAD INSTITUTE, INC., priority 2018, dated 2025).

System: THP-1 monocytes
Assay: PATTERNS protein quantification in tagged THP-1 monocyte library
Type: cell-based, human
Conditions: 6 hours treatment; out of 400 proteins represented; including FOS and EGR1
Method: RNP-mediated gene tagging in other cell lines. Non-confluent cells were trypsinized and/or washed and adjusted to a density 2E7/ml in warm OptiMEM. 125 μl of cell suspension were mixed with 125 μl OptiMEM containing 2.5 μg donor DNA, 2.5 μg Cas9 protein, and 250 ng sgRNA. The mix was incubated for 15 minutes at room temperature, and transferred to a 4 mm electroporation cuvette (BioRad). Cells were electroporated on a Gene Pulser Xcell Electroporation System (BioRad) using the following settings: 265V, 975 μF, and 720 Ohm. Cells were recovered immediately in 5 ml of pre-warmed growth medium. For library generation in THP-1 and SKMEL28 cells, the above protocol was scaled up 10-fold.
FACS sorting. […]
Analysis of Silent Barcode Sequencing data. Silent barcode bases were extracted from raw sequencing reads and were converted to a 28-bit integer value. Using a barcode lookup table, reads were collapsed into target loci, and a matrix of screening conditions vs. sorted bins was incremented for every successfully mapped read. Total read counts in every position of the matrix were normalized by the ratio of sorted cells (from control sort for simplification) divided by total reads with correctly mapped 10 bp reverse primer sequence, which helped to even out PCR saturation artifacts. […] All data were analyzed using a custom JavaScript-based analysis tool that is available online.

For CCCCCCCCCCCCCC(=O)O[C@@H]1[C@@H](C)[C@@]2(O)[C@@H](C=C(CO)C[C@]3(O)C(=O)C(C)=C[C@@H]23)[C@@H]2C(C)(C)[C@]12OC(C)=O [PMA, Phorbol 12-Myristate 13-Acetate], the “proteins whose levels were altered, by PATTERNS” value was “four proteins”.
